Columns and labels:
Assay type in all cases: in vivo, male F344/N rats
[1] = 14-day rat study: 24 h urinary excretion of OTA and OTA-glucuronides, LC–MS/MS with and without β-glucuronidase hydrolysis; settings: for Urinary excretion / Urinary excretion, fraction of the administered dose: 2 mg OTA/kg bw oral, 5 d/week; for Urinary excretion, fraction of the administered dose: 24 h urine
Description: (§1) 14-day study: Male F344 rats (170–190 g) were purchased from Charles-River Laboratories, Sulzfeld, Germany. Animals had free access to water and standard diet (Altromin) and were kept under standard conditions (12 h day/night cycle, temperature 21–23 °C, humidity 45–55%). Rats were transferred to metabolic cages (Tecniplast Metabolic Cage—Rats Over 300 g; Tecniplast, Italy) for collection of urine 3 days prior to dosing. Animals were administered OTA dissolved in corn oil by oral gavage at 0, 0.25, 0.5, 1.0 and 2.0 mg/kg bw for 2 weeks (5 days per week). Urine was collected every 12 h on day 1 of treatment and every 24 h thereafter on ice, aliquoted and stored at −20 °C until further analysis.
(§2) Duplicate analysis of OTA in urine samples with and without enzymatic hydrolysis allowed for indirect measurement of glucuronides, whereby an increase in the concentration of OTA in the samples incubated with enzyme compared to those without enzymatic treatment reflected the hydrolyzed glucuronides. Aliquots of rat urine (125 µL) were mixed with 0.1 M sodium acetate (104 µL; pH = 5). For analysis of the concentration of OTA without enzymatic hydrolysis, an aliquot (30 µL) of this solution was removed and mixed with 7 µL acetonitrile. The remaining solution (199 µL) was incubated with β-glucuronidase (1.65 µL; <100,000 units/mL) at 37 °C for 1 h. Hydrolysis was terminated by addition of ice-cold acetonitrile (50 µL) and centrifugation (15 min., 4 °C, 20,000× g). To 98 µL supernatant, 2 µL isotopically labeled ^13C20-OTA in acetonitrile (14-day study: 5 µg/mL; 90-day study: 1 µg/mL) was added as an internal standard. For analysis, 10 µL of each sample were injected into the LC–MS system and analyzed using the method described below. A calibration curve was prepared from solutions of OTA and the isotopically labeled ^13C20-OTA internal standard in acetonitrile and subsequent dilution with urine of a control animal.
(§3) LC–MS/MS analyses were performed on an Agilent 1100 series LC coupled to an API 2000/Q-Trap mass spectrometer (Applied Biosystems/MDS Sciex, Concord, Canada). Samples were injected into the LC–MS/MS system through an Agilent 1100 series autosampler. Separations were carried out on a ReproSil-Pur C18 AQ column (2 mm × 150 mm, 5 µm; Dr. Maisch; Ammerbuch, Germany). Gradient elution of OTA-derived metabolites was carried out with water + 0.1% formic acid (solvent A) and acetonitrile (solvent B). Initially, solvent A was held isocratic for 5 min at 100%, followed by a linear gradient to 95% B in 5 min. These conditions were held for further 5 min. Within 1 min, the gradient decreased linearly to 0% B and remained at initial conditions until the end of analysis (30 min). A flow rate of 0.2 mL/min was used. For each run, 10 µL of the respective sample were injected by the autosampler.
(§4) The API 2000/Q-Trap mass spectrometer was operated with a Turbo Ion Spray source in negative ion mode with a voltage of −4000 V. Spectral data were recorded with N2 as the heater gas at 450 °C and as the collision gas (CAD = −2) in multiple reaction monitoring mode (MRM).

[2] = 90-day rat study: 24 h urinary excretion of OTA and OTA-glucuronides, LC–MS/MS with and without β-glucuronidase hydrolysis; settings: for Urinary excretion, fraction of the administered dose / Urinary excretion: 5 days/week; for Urinary excretion, fraction of the administered dose: 24 h urine
Description: (§5) 90-day study: Male F344/N rats (6–7 weeks old) were purchased from Harlan-Winkelmann, Borchen, Germany. Animals were housed in groups of 5 in Macrolon type-4 cages and allowed free access to pelleted standard rat maintenance diet (SSNIFF, Soest, Germany) and tap water. After a week of acclimatization, rats (n = 5/dose) were exposed to OTA dissolved in corn oil by oral gavage at doses of 0, 21, 70 or 210 µg/kg bw for 2, 4 or 13 weeks (5 days per week). For urine collection, animals were transferred into metabolic cages (Tecniplast Metabolic Cage—Rats Over 300 g; Tecniplast, Italy) 48 h prior to necropsy and fasted for 20 h but allowed free access to tap water. Urine was collected for 24 h on ice, aliquoted and stored at −20 °C until further analysis.
as §2, §3, §4

[3] = Direct LC–MS/MS analysis of OTA metabolites in urine of OTA-treated rats; settings: OTA up to 2 mg/kg bw, negative ionization mode
Description: Archived urine samples from previous repeated dose oral toxicity studies on OTA in male F344/N rats were used. The studies were performed according to national animal welfare regulations after authorization by the local authorities (Regierung von Unterfranken, AZ 621-2531.01-9/98 and AZ 54-2531.01-59/05).
as §1, §5
Urine samples were diluted with acetonitrile (2:1), vortexed and cleared via centrifugation (4 °C, 15 min., 2000× g) to precipitate proteins. Of the resulting supernatant, 10 µL were injected into the LC–MS system and analyzed using the method described below.
as §3, §4
In addition to MRM, constant neutral loss of 129 amu in the negative ion mode based on the characteristic fragmentation pattern of mercapturic acids was used to screen for N-acetyl-cysteine conjugates of OTA. Furthermore, constant neutral loss of 176 amu in positive ion mode based on the fragmentation pattern of glucuronic acid conjugates was used to screen for OTA glucuronides.

[4] = 4 weeks treatment, OTA 210 μg/kg bw per day oral, n = 1

C[C@@H]1Cc2c(Cl)cc(C(=O)N[C@@H](Cc3ccccc3)C(=O)O)c(O)c2C(=O)O1 [OTA, Ochratoxin A]
Urinary excretion ([1]; animal 2, day 3 of treatment): 15.3 nmol/24 h | Urinary excretion, fraction of the administered dose ([1]; animal 2, day 3 of treatment): 1.8% | Urinary excretion ([1]; animal 2, day 5 of treatment): 40.3 nmol/24 h | Urinary excretion, fraction of the administered dose ([1]; animal 2, day 5 of treatment): 4.7% | Urinary excretion ([1]; animal 2, day 7 of treatment): 35.4 nmol/24 h | Urinary excretion, fraction of the administered dose ([1]; animal 2, day 7 of treatment): 4.1% | Urinary excretion ([1]; animal 2, day 9 of treatment): 32.9 nmol/24 h | Urinary excretion, fraction of the administered dose ([1]; animal 2, day 9 of treatment): 3.7% | Urinary excretion ([1]; animal 2, day 11 of treatment): 40.9 nmol/24 h | Urinary excretion, fraction of the administered dose ([1]; animal 2, day 11 of treatment): 4.6% | Urinary excretion ([1]; animal 2, day 13 of treatment): 21.0 nmol/24 h | Urinary excretion, fraction of the administered dose ([1]; animal 2, day 13 of treatment): 2.2% | Urinary excretion ([1]; animal 3, day 3 of treatment): 4.4 nmol/24 h | Urinary excretion, fraction of the administered dose ([1]; animal 3, day 3 of treatment): 0.5% | Urinary excretion ([1]; animal 3, day 5 of treatment): 30.9 nmol/24 h | Urinary excretion, fraction of the administered dose ([1]; animal 3, day 5 of treatment): 3.5% | Urinary excretion ([1]; animal 3, day 7 of treatment): 62.4 nmol/24 h | Urinary excretion, fraction of the administered dose ([1]; animal 3, day 7 of treatment): 6.9% | Urinary excretion ([1]; animal 3, day 9 of treatment): 17.8 nmol/24 h | Urinary excretion, fraction of the administered dose ([1]; animal 3, day 9 of treatment): 2.0% | Urinary excretion ([1]; animal 3, day 11 of treatment): 33.6 nmol/24 h | Urinary excretion, fraction of the administered dose ([1]; animal 3, day 11 of treatment): 3.7% | Urinary excretion ([1]; animal 3, day 13 of treatment): 48.1 nmol/24 h | Urinary excretion, fraction of the administered dose ([1]; animal 3, day 13 of treatment): 5.3% | 24 h urinary excretion, % of the daily administered dose ([1]; range over the course of the study, OTA 2 mg/kg bw for 2 weeks (5 days/week)): 0.5–6.9% | Urinary excretion, fraction of the administered dose ([2]; 2 weeks treatment, OTA 21 μg/kg bw per day oral): 1.9% | Urinary excretion ([2]; 2 weeks treatment, OTA 21 μg/kg bw per day oral, mean ± SD): 0.22 ± 0.03 nmol/24 h | Urinary excretion, fraction of the administered dose ([2]; 2 weeks treatment, OTA 70 μg/kg bw per day oral): 0.8% | Urinary excretion ([2]; 2 weeks treatment, OTA 70 μg/kg bw per day oral, mean ± SD): 0.32 ± 0.12 nmol/24 h | Urinary excretion, fraction of the administered dose ([2]; 2 weeks treatment, OTA 210 μg/kg bw per day oral): 1.2% | Urinary excretion ([2]; 2 weeks treatment, OTA 210 μg/kg bw per day oral, mean ± SD): 1.35 ± 0.36 nmol/24 h | Urinary excretion, fraction of the administered dose ([2]; 4 weeks treatment, OTA 70 μg/kg bw per day oral): 0.9% | Urinary excretion ([2]; 4 weeks treatment, OTA 70 μg/kg bw per day oral, mean ± SD): 0.51 ± 0.09 nmol/24 h | Urinary excretion, fraction of the administered dose [2, 4]: 4.6% | Urinary excretion [2, 4]: 5.86 nmol/24 h | Urinary excretion, fraction of the administered dose ([2]; 13 weeks treatment, OTA 21 μg/kg bw per day oral): 1.1% | Urinary excretion ([2]; 13 weeks treatment, OTA 21 μg/kg bw per day oral, mean ± SD): 0.18 ± 0.07 nmol/24 h | Urinary excretion, fraction of the administered dose ([2]; 13 weeks treatment, OTA 70 μg/kg bw per day oral): 1.9% | Urinary excretion ([2]; 13 weeks treatment, OTA 70 μg/kg bw per day oral, mean ± SD): 0.97 ± 0.36 nmol/24 h | Urinary excretion, fraction of the administered dose ([2]; 13 weeks treatment, OTA 210 μg/kg bw per day oral): 2.5% | Urinary excretion ([2]; 13 weeks treatment, OTA 210 μg/kg bw per day oral, mean ± SD): 3.88 ± 1.50 nmol/24 h | Fraction of the administered dose excreted in urine ([2]; range over 90-day study, OTA 21, 70 and 210 µg/kg (5 days/week)): 0.8 to 4.6% | Detection in urine of OTA-treated rats by direct LC–MS/MS (MRM) [3]: consistently found

— publication PMC8402547, “In Vitro and In Vivo Analysis of Ochratoxin A-Derived Glucuronides and Mercapturic Acids as Biomarkers of Exposure” (Toxins, 2021)
